Test: xn = mol fraction of the nth substance listed
Details: 101 kPa, Liquid; for speed of sound: Pulse-echo method

CCCOCC(C)OCC(C)O (stereo not given) [1-(1-methyl-2-propoxyethoxy)-2-propanol] + CCCCNCCCC
Details	mass density, 288.15 K [kg/m3]	mass density, 293.15 K [kg/m3]	speed of sound, 288.15 K [m/s]	speed of sound, 293.15 K [m/s]	speed of sound, 298.15 K [m/s]
x1 = 0.123	792.458	788.243	1291.2	1271.6	1252
x1 = 0.1582	798.993	794.736	1293.2	1273.2	1253.7
x1 = 0.1913	804.954	800.654	1294.9	1274.7	1255.1
x1 = 0.2541	815.956	811.61	1297.6	1277.1	1257.5
x1 = 0.3195	827.1	822.71	1299.8	1279.3	1259.6
x1 = 0.3623	834.198	829.803	1300.9	1280.5	1260.8
x1 = 0.4155	842.79	838.381	1302	1281.8	1262
x1 = 0.4543	848.877	844.447	1302.6	1282.7	1262.9
x1 = 0.4974	855.422	850.98	1303.2	1283.5	1263.7
x1 = 0.5491	863.031	858.573	1303.6	1284.3	1264.5
x1 = 0.6027	870.648	866.201	1304	1285.1	1265.2
x1 = 0.6687	879.855	875.389	1304.3	1285.8	1266
x1 = 0.6962	883.669	879.204	1304.4	1286	1266.3
x1 = 0.7504	891.256	886.786	1304.6	1286.4	1266.8
x1 = 0.7997	898.225	893.775	1304.8	1286.7	1267.3
x1 = 0.8657	907.649	903.208	1305.3	1287	1267.9
x1 = 0.8963	911.923	907.504	1305.5	1287.2	1268.2
x1 = 0.9589	920.017	915.65	1306.3	1287.4	1268.8

— the NIST ThermoML archive (doi:10.1007/s10765-009-0593-3)
